Experimental data as given in patent publication US12240862B2, “Inhibitors of peptidylarginine deiminases” (Gilead Sciences, Inc., priority 2020, dated 2025).

Target: T1, human PAD4 (Homo sapiens, UniProt Q9UM07)
T1 construct: human PAD4 (NM_012387), A2P663, was PCR amplified; His-SUMO (N, cleaved yes); made in house; host or cells: E. coli BL21(DE3)
Experiment: In vitro PAD4 BAEE biochemical assay
Conditions: human PAD4, BAEE substrate; 5 nM PAD4, 2 mM calcium chloride, 3 mM BAEE; geometric mean of multiple experiments
Method in brief: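 Tag-free recombinant hPAD4 (5 nM), 2 mM CaCl2, 3 mM BAEE, 50 mM MOPS pH 7.6, 2 mM DTT; 30 min compound preincubation, 2 h reaction, all 25 °C. EDTA quench; ammonia read via o-phthalaldehyde amine coupling, 1 h.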

T1 sequence (Q9UM07 2-663): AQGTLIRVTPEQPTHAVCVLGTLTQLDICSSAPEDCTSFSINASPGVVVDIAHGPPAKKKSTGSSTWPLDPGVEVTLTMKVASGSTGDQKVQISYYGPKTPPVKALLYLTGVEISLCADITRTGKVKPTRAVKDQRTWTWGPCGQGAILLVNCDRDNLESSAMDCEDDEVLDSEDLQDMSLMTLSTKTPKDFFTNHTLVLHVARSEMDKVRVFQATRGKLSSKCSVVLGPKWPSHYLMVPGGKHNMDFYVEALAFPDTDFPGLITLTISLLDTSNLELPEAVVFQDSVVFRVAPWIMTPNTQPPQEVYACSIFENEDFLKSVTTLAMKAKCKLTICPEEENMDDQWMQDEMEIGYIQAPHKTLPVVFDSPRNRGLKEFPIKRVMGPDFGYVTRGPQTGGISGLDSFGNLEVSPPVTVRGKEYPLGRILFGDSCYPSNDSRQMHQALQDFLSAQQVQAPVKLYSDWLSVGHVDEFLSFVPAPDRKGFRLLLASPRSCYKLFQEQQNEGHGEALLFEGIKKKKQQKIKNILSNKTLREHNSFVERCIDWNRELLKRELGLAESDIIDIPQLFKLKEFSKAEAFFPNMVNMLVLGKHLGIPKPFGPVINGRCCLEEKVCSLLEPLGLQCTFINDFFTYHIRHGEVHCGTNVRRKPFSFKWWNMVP

Row | IC50 [nM] | Compound
1 | 143 | COc1cc(C(=O)N2CCC[C@@H](N)[C@H]2C)cc2nc(-c3cc4ccc(N(C(F)F)S(C)(=O)=O)nc4n3CC3CC3)c(C)n12 [Example 411, ~{N}-[2-[7-[(2~{R},3~{R})-3-amino-2-methylpiperidine-1-carbonyl]-5-methoxy-3-methylimidazo[1,2-a]pyridin-2-yl]-1-(cyclopropylmethyl)pyrrolo [2,3-b]pyridin-6-yl]-~{N}-(difluoromethyl) methanesulfonamide]
2 | 107 | COc1cc(C(=O)N2[C@H]3CC[C@@H]2[C@H](N)C3)cc2nc(-c3cc4ccc([C@@H](C)NC(=O)C5(C(F)F)CC5)nc4n3CC3CC3)c(C)n12 [Example 137, ~{N}-[(1~{R})-1-[2-[7-[(1~{R},2~{R},4~{S})-2-amino-7-azabicyclo[2.2.1]heptane-7-carbonyl]-5-methoxy-3-methylimidazo [1,2-a]pyridin-2-yl]-1-(cyclopropylmethyl)pyrrolo [2,3-b]pyridin-6-yl]ethyl]-1-(difluoromethyl) cyclopropane-1-carboxamide]
3 | 144 | COc1cc(C(=O)N2[C@H]3CC[C@@H]2[C@H](N)C3)cc2nc(-c3cc4ccc([C@@H](C)NC(=O)[C@H]5[C@@H]6CC(F)(F)C[C@@H]65)nc4n3CC3CC3)c(C)n12 [Example 8, (1~{R},5~{S})-~{N}-[(1~{R})-1-[2-[7-[(1~{R}, 2~{R},4~{S})-2-amino-7-azabicyclo[2.2.1]heptane-7-carbonyl]-5-methoxy-3-methylimidazo [1,2-a]pyridin-2-yl]-1-(cyclopropylmethyl)pyrrolo[2,3-b]pyridin-6-yl]ethyl]-3,3-difluorobicyclo[3.1.0] hexane-6-carboxamide]
4 | 9870 | COc1cc(C(=O)N2C[C@H](N)[C@@H](F)C2)cc2nc(-c3cc4ccc(N(C(F)F)S(C)(=O)=O)nc4n3CC3CC3)c(C)n12 [Example 290, ~{N}-[2-[7-[(3~{S}, 4~{S})-3-amino-4-fluoropyrrolidine-1-carbonyl]-5-methoxy-3-methylimidazo [1,2-a]pyridin-2-yl]-1-(cyclopropylmethyl)pyrrolo [2,3-b]pyridin-6-yl]-~{N}-(difluoromethyl) methanesulfonamide]
5 | 259 | COc1cc(C(=O)N2[C@H]3CC[C@@H]2[C@H](N)C3)cc2nc(-c3cc4ccc([C@@H](C)NC(=O)c5ccccc5C(F)(F)F)nc4n3CC3CC3)c(C)n12 [Example 10, ~{N}-[(1~{R})-1-[2-[7-[(1~{R},2~{R},4~{S})-2-amino-7-azabicyclo [2.2.1]heptane-7-carbonyl]-5-methoxy-3-methylimidazo [1,2-a]pyridin-2-yl]-1-(cyclopropylmethyl)pyrrolo[2,3-b]pyridin-6-yl]ethyl]-2-(trifluoromethyl) benzamide]
6 | 31200 | COc1cc(C(=O)N[C@@H]2C[C@@H]3CC[C@H]2N3)cc2nc(-c3cc4ccc(N(C(F)F)S(C)(=O)=O)nc4n3CC3CC3)c(C)n12 [Example 312, N-[(1R,2R,4S)-7-azabicyclo[2.2.1]heptan-2-yl]-2-[1-(cyclopropylmethyl)-6-[difluoromethyl (methylsulfonyl)amino]pyrrolo[2,3-b]pyridin-2-yl]-5-methoxy-3-methyl-imidazo[1,2-a] pyridine-7-carboxamide]
7 | 535 | CCc1ccc2cc(-c3nc4cc(C(=O)N5CCC6CCNC6C5)cc(OC)n4c3C)n(CC3CC3)c2n1 (centres unmarked) [Example 583, 1,2,3,3~{a},4,5,7,7~{a}-octahydropyrrolo[2,3-c] pyridin-6-yl-[2-[1-(cyclopropylmethyl)-6-ethylpyrrolo[2,3-b]pyridin-2-yl]-5-methoxy-3-methylimidazo[1,2-a]pyridin-7-yl]methanone]

Row | Compound | IC50 [nM]
8 | [(1~{R},2~{R},4~{S})-2- amino-7- azabicyclo[2.2.1]heptane-7- carbonyl]- 5-methoxy-3-methylimidazo [1,2-a]pyridin-2-yl]-1- (cyclopropylmethyl)pyrrolo [2,3-b]pyridin-6-yl]ethyl]-3- hydroxybicyclo[1.1.1] pentane-1-carboxamide [Example 87] | 28.6
